{
  "source": "the supplement of paper PMC3974653",
  "note": "Where a name gives a salt, the structure may show the parent alone.",
  "data": [
    {"system": "MTT (mouse pheochromocytoma)", "test": "IC50 of cell viability (ATP content)", "details": "(24 or 48 h)", "in_short": "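Each well of a white 1536-well plate received 5 µl of MTT mouse pheochromocytoma cells at 200,000 cells/ml in DMEM containing 5% FBS and 1% horse serum. After overnight culture at 37°C, 5% CO2, cells were exposed for 24 or 48 hrs to 23 nl of library compound in DMSO, pinned at 8 final concentrations from 0.5 nM to 46 µM. CellTiter-Glo luminescence was read after 15 minutes, and IC50 was obtained from a four-parameter logistic fit of signals normalised to positive-control and DMSO wells.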", "units": {"IC50 of cell viability": "µM"}, "values": [
      {"smiles": "CCCCCCCCCCCCCC(=O)OCC(COP(=O)([O-])OCC[N+](C)(C)C)OC(=O)CCCCCCCCCCCCC", "note": "(stereo not given) [DIMYRISTOYL LECITHIN]", "IC50 of cell viability": "> 46"},
      {"smiles": "CCC(C(=O)OCCN(CC)CC)c1ccccc1", "note": "(stereo not given) [BUTETAMATUM]", "IC50 of cell viability": "> 46"},
      {"smiles": "O=C(O)CSCC(=O)NC1CCSC1=O", "note": "(stereo not given) [Erdosteine]", "IC50 of cell viability": "> 46"},
      {"smiles": "c1ccc2sc(SNC3CCCCC3)nc2c1", "note": "[N-CYCLOHEXYLBENZOTHIAZYLSULFENAMIDE]", "IC50 of cell viability": "> 46"},
      {"smiles": "COc1cc(N)c(Cl)cc1C(=O)NC1CN2CCC1CC2", "note": "(stereo not given) [Zacopride hydrochloride]", "IC50 of cell viability": "> 46"},
      {"smiles": "CCCCCCCCCCCCCCCCCC(=O)[O][Al]([OH])[OH]", "note": "[Aluminum monostearate]", "IC50 of cell viability": "> 46"},
      {"smiles": "COc1ccc(CCN(C)CCCC(C#N)(c2cc(OC)c(OC)c(OC)c2)C(C)C)cc1OC", "note": "(stereo not given) [METHOXY VERAPAMIL]", "IC50 of cell viability": "> 46"},
      {"smiles": "O=C1CC[C@@H](C(=O)O)N1", "note": "[PYRROLIDONE CARBOXYLIC ACID]", "IC50 of cell viability": "> 46"},
      {"smiles": "Oc1nc(O)c2nc(O)[nH]c2n1.[NaH]", "note": "[URIC ACID]", "IC50 of cell viability": "> 46"},
      {"smiles": "CNC(=O)c1c(I)c(C(=O)NCC(=O)Nc2c(I)c(C(=O)O)c(I)c(C(=O)NCCO)c2I)c(I)c(N(C)C(C)=O)c1I", "note": "[Ioxaglic acid]", "IC50 of cell viability": "> 46"},
      {"smiles": "NC1CCCCC1N.O=C([O-])C(=O)[O-].[Pt+2]", "note": "(stereo not given) [OXALIPLATIN]", "IC50 of cell viability": "> 46"},
      {"smiles": "CNC(=O)Oc1ccc2c(c1)[C@]1(C)CCN(C)[C@@H]1N2C", "note": "[PHYSOSTIGMINE]", "IC50 of cell viability": "> 46"},
      {"smiles": "NC(N)=Nc1nc(CSCC/C(N)=N/[S+](N)(=O)[O-])cs1", "note": "[FAMOTIDINE]", "IC50 of cell viability": "> 46"},
      {"smiles": "CCc1cccc2c3c([nH]c12)[C@](CC)(CC(=O)O)OCC3", "note": "[Etodolac]", "IC50 of cell viability": "> 46"},
      {"smiles": "CC1(C)C[C@@H]1C(=O)N/C(=C\\CCCCSC[C@H](N)C(=O)O)C(=O)O", "note": "[CILASTATIN SODIUM]", "IC50 of cell viability": "> 46"},
      {"smiles": "C#C[C@]1(O)CC[C@H]2[C@@H]3CCC4=Cc5oncc5C[C@]4(C)[C@H]3CC[C@@]21C", "note": "[Danazol]", "IC50 of cell viability": "> 46"},
      {"smiles": "CN1/C=C(/[S+](C)[O-])C(=O)C2=C1C=C(F)C=C2", "note": "(stereo not given) [Flosequinan]", "IC50 of cell viability": "> 46"},
      {"smiles": "CC(=O)Nc1cccc(O)c1", "note": "[METACETAMOL]", "IC50 of cell viability": "> 46"},
      {"smiles": "N[S+](=O)([O-])c1ccc(Cl)c([S+](N)(=O)[O-])c1", "note": "[Clofenamide]", "IC50 of cell viability": "> 46"},
      {"smiles": "OC(CN1CCCCC1)c1cc(-c2ccccc2)on1", "note": "(stereo not given)", "IC50 of cell viability": "> 46"},
      {"smiles": "COc1ccc(N[S+](=O)([O-])c2ccc(N)cc2)nn1", "note": "[Sulfamethoxypyridazine]", "IC50 of cell viability": "> 46"},
      {"smiles": "COc1ccc(C2C(=O)c3ccccc3C2=O)cc1", "note": "[ANISINDIONE]", "IC50 of cell viability": "> 46"},
      {"smiles": "CCCC(=O)O[C@@]1(CCC2[C@@H]3CCC/4=C/C(=O)CC[C@]4(C)C3C(O)C[C@@]12C)C(=O)CO", "note": "(stereo not given in full) [HYDROCORTISONE BUTYRATE]", "IC50 of cell viability": "> 46"},
      {"smiles": "CC(=O)O[C@@H](C)C(=O)OCC[N+](C)(C)C.CC(=O)O[C@@H](C)C(=O)OCC[N+](C)(C)C.O=S(=O)([O-])c1cccc2c(S(=O)(=O)[O-])cccc12", "note": "[Aclatonium napadisilate]", "IC50 of cell viability": "> 46"},
      {"smiles": "CO/N=C(/C(=O)N[C@@H]1C(=O)N2C(C(=O)[O-])=CCS[C@H]12)c1csc(N)n1", "note": "[CEFTIZOXIME SODIUM]", "IC50 of cell viability": "> 46"},
      {"smiles": "CCC(C(=O)NC(N)=O)c1ccccc1", "note": "(stereo not given) [ETHYLPHENACEMIDE]", "IC50 of cell viability": "> 46"},
      {"smiles": "CCN1CCC[C@@H]1CNC(=O)c1cc([S+](=O)([O-])CC)ccc1OC", "note": "[Sultopride Hydrochloride]", "IC50 of cell viability": "> 46"},
      {"smiles": "CCN(CC)c1ccc(/N=N/c2ccc([S+](=O)([O-])N(C)C)cc2)c([S+](=O)([O-])NCC[n+]2ccccc2)c1", "note": "[ORANGE OIL]", "IC50 of cell viability": "> 46"},
      {"smiles": "O=[N+]([O-])c1cccc([S+](=O)([O-])NCCN[S+](=O)([O-])c2cccc([N+](=O)[O-])c2)c1", "note": "[Dinsed]", "IC50 of cell viability": "> 46"},
      {"smiles": "COC(=O)C1=C(C)NC(C)=C(C(=O)OCC(C)=O)C1c1ccccc1[N+](=O)[O-]", "note": "(stereo not given) [Aranidipine]", "IC50 of cell viability": "> 46"},
      {"smiles": "OCc1ccc(Cl)cc1Cl", "note": "[DICHLOROBENZYL ALCOHOL]", "IC50 of cell viability": "> 46"},
      {"smiles": "COc1ccc(CCN(C)CCCC(C#N)(c2ccc(OC)c(OC)c2)C(C)C)cc1OC", "note": "(stereo not given) [VERAPAMIL]", "IC50 of cell viability": "> 46"},
      {"smiles": "O=[N+]([O-])O[C@H]1CO[C@H]2[C@@H]1OC[C@H]2O", "note": "[ISOSORBIDE MONONITRATE]", "IC50 of cell viability": "> 46"},
      {"smiles": "O=C(O)CCCCCCNC1c2ccccc2CCc2ccccc21", "note": "[Amineptine]", "IC50 of cell viability": "> 46"},
      {"smiles": "CNC1(c2ccccc2Cl)CCCCC1=O", "note": "(stereo in doubt) [(R)-(+)-Ketamine]", "IC50 of cell viability": "> 46"},
      {"smiles": "CC1(O)CCC2C3CCC4=CC(=O)CCC4(C)C3(F)C(O)CC21C", "note": "(stereo not given) [Fluoxymesterone]", "IC50 of cell viability": "> 46"},
      {"smiles": "CC[C@@H]1[C@@H]2C[C@H]3[C@H]4N(C)c5ccccc5[C@@]45C[C@H]([C@H]2[C@H]5O)[N@@]3[C@H]1O", "note": "[Ajmaline]", "IC50 of cell viability": "> 46"},
      {"smiles": "CC/C=C(/C(=O)N[C@@H]1C(=O)N2C(C(=O)OCOC(=O)C(C)(C)C)=C(COC(N)=O)CS[C@H]12)c1csc(N)n1", "note": "[Cefcapene pivoxil HCl]", "IC50 of cell viability": "> 46"},
      {"smiles": "C[C@]12CCC(=O)C=C1CC[C@@H]1[C@@H]2[C@@H](O)C[C@@]2(C)[C@H]1CC[C@]2(O)C(=O)COP(=O)([O-])[O-]", "note": "[HYDROCORTISONE SODIUM PHOSPHATE]", "IC50 of cell viability": "> 46"},
      {"smiles": "CCCCC1(COC(=O)CCC(=O)O)C(=O)N(c2ccccc2)N(c2ccccc2)C1=O", "note": "[Suxibuzone]", "IC50 of cell viability": "> 46"},
      {"smiles": "O[C@H]1\\C=C/[C@H]2[C@H]3CC4=C5C(=C(O)C=C4)O[C@@H]1[C@@]25CCN3CC=C", "note": "[NALORPHINE HYDROCHLORIDE]", "IC50 of cell viability": "> 46"},
      {"smiles": "CC(C)c1cc2c(cc1[S+](=O)([O-])O)[C@@]1(C)CCC[C@@](C)(C(=O)O)[C@@H]1CC2", "note": "[ECABET SODIUM]", "IC50 of cell viability": "> 46"},
      {"smiles": "C1N2CN3CN1CN(C2)C3", "note": "[3-0760 Hexamethylenetetramine]", "IC50 of cell viability": "> 46"},
      {"smiles": "COc1cc(CC(C)N)cc2c1OCO2", "note": "(stereo not given) [(?)-3-Methoxy-4,5-methylenedioxyamphetamine]", "IC50 of cell viability": "> 46"},
      {"smiles": "CC[C@H]1OC(=O)C[C@@H](O)[C@H](C)[C@@H](O[C@@H]2O[C@H](C)C[C@H](N(C)C)[C@@H]2O)[C@@H](CC=O)C[C@@H](C)C(=O)/C=C\\[C@]2(C)O[C@H]2[C@@H]1C", "note": "[Rosaramicin]", "IC50 of cell viability": "> 46"},
      {"smiles": "COC1=C(OC)C(=O)C(CCCCCCCCCCO)=C(C)C1=O", "note": "[Idebenone]", "IC50 of cell viability": "> 46"},
      {"smiles": "CCOC(C)OCC", "note": "[Acetal (Acetaldehyde diethyl acetal)]", "IC50 of cell viability": "> 46"},
      {"smiles": "Oc1cccc2cccnc12", "note": "[8-Hydroxyquinoline]", "IC50 of cell viability": "> 46"},
      {"smiles": "CC(C)(C)C(=O)C(Oc1ccc(Cl)cc1)n1ccnc1", "note": "(stereo not given) [Climbazole]", "IC50 of cell viability": "> 46"},
      {"smiles": "CC1(C)C(\\C=C(/Cl)Cl)C1C(=O)OCC2=CC=CC(OC3=CC=CC=C3)=C2", "note": "(stereo not given) [PERMETHRIN]", "IC50 of cell viability": "> 46"}
    ]}
  ]
}
